From paper PMC10145360, “Antiplatelet Aggregation Properties of Cirsilineol: A Novel Inhibitor of Blood Coagulation Factor Xa” (Pharmaceuticals, 2023)
Marks after values point to notes of the source that are not given here.

Key:
[1] = test system: platelet-poor plasma (PPP); assay: In vitro aPTT clotting time in platelet-poor plasma; set-up: species or system human; settings: PPP incubated 15 min
Method: (§1) Figure 2 Effects of CSL on clotting time. (A) Platelet-poor plasma (PPP) was incubated with the indicated concentrations of CSL or rivaroxaban (Riva) for 15 min. (B) One hour after administering DMSO, CSL, or Riva, blood was collected from the mice, and PPP was obtained. Then, in vitro aPTT (A) or ex vivo aPTT was measured, as described in the Methods sections. Data are shown as mean values ± SD of five independent experiments. * p < 0.05 vs. D. D = 0.2% DMSO, used as the vehicle control.
(§2) Ten fasting healthy volunteers (aged 24–28; six women and four men) who were free of allergies, cardiovascular problems, carbohydrate, or lipid metabolic abnormalities and had not taken any morning medication had their blood samples taken. None of our subjects used addictive drugs or antioxidant food supplements, and their diets were well balanced. The plasma from the blood samples was immediately spun down (1300× g for 15 min) to separate it from sodium citrate (10.9 mM) and pooled for the following investigations. Next, human blood samples were spun down at room temperature to rapidly separate the PRP. The PRP concentration was adjusted to 1 × 10^9 platelets/mL using a hemocytometer. After being rinsed once in HEPES buffer containing 1 mM CaCl2, the PRP pellet was maintained at room temperature for an additional 30 min. Then, 10 mL of the platelet samples were utilized to measure each clotting time point. The IRB of Kyungpook National University Hospital (Daegu, Republic of Korea) approved this study protocol (KNUH 2012-01-010).
Plasma was taken by centrifuging blood (2000× g for 10 min) at room temperature following dimethyl sulfoxide (DMSO) or CSL administration for 1 h to assess PT and aPTT using a thrombotimer (Behnk Elektronik, Norderstedt, Germany). Micronized silica was utilized as an activator for the aPTT test. Briefly, 100 μL of platelet-poor plasma (PPP) and 100 μL of aPTT assay reagent were combined for 1 min at 37 °C, 100 µL of CaCl2 (20 mM) was added, and the clotting times were noted. […] Next, the clotting time was measured.

[2] = test system: platelet-poor plasma (PPP); assay: Ex vivo aPTT clotting time after intravenous injection; type: in vivo, mouse; settings: mice, intravenous
Method: (§3) First, the potential cytotoxicity of […] on HUVECs was assessed using the 3-(4,5-dimethylthiazol-2-yl)-2,5-diphenyltetrazolium bromide (MTT) assay. […] The activated partial thromboplastin time (aPTT) and prothrombin time (PT), two coagulation parameters altered by CSL in vitro, were assessed first. We used the direct FXa inhibitor rivaroxaban as a positive control for our experiments. […] In the aPTT experiments, rivaroxaban at 8.38 μM and CSL at 7.23 μM, respectively, doubled the clotting time. Each mouse group (n = 5) received intravenous injections of CSL for 4 consecutive days to validate the in vitro results in an ex vivo experiment. […] In the ex vivo aPTT assays, treatment with CSL at 0.25 mg/kg and rivaroxaban at 0.29 mg/kg, respectively, doubled the clotting time. The average blood volume was determined to be 2 mL based on an estimated circulating blood volume for mice of 72 mL/kg and an average weight of 27 g for each animal used in this investigation. As a result, the estimated concentration of CSL in the peripheral blood after each injection ([…]) was 2.5, 5, 10, or 20 μM, respectively.
as §1
Male C57BL/6 mice aged 7 weeks (mean weight: 27 g) were purchased from Orient Bio Co., in Sungnam, Republic of Korea, and were subjected to a 12-day acclimatization phase. […]
(§4) Plasma was taken by centrifuging blood (2000× g for 10 min) at room temperature following dimethyl sulfoxide (DMSO) or CSL administration for 1 h to assess PT and aPTT using a thrombotimer (Behnk Elektronik, Norderstedt, Germany). […] Next, the clotting time was measured.

[3] = test system: platelet-poor plasma (PPP); assay: Prothrombin time (PT) after administration to mice; type: in vivo, mouse; settings: administered to mice; data not shown
Method: as §3, §4

[4] = test system: human platelet-rich plasma (PRP); assay: In vitro agonist-induced platelet aggregation (aggregometer); type: cell-based
Method: Figure 3 Effects of CSL on agonist-induced platelet aggregation. Platelet-rich plasma (PRP) was preincubated for 5 min with different concentrations of CSL, Riva, or the vehicle. […] Data are shown as mean values ± SD of five independent experiments. * p < 0.05 vs. D. D = 0.2% DMSO, used as the vehicle control.
as §2
CSL dissolved in DMSO was incubated with human PRP for a specified time (1, 3, 5, or 10 min). […]

[5] = test system: FeCl3-induced carotid artery thrombosis; assay: FeCl3-induced carotid artery thrombosis model; type: in vivo, mouse; settings: mice
Method: A mouse model of FeCl3-induced thrombosis was created and used. Male C57BL/6 mice were starved for the entire night before receiving intravenous injections of the relevant drug in 0.2 mL of DMSO and were allowed to sleep. The carotid artery of the animal was exposed. The adventitial surface was covered with a cotton thread (200 μm in diameter) soaked in FeCl3 solution (0.25 M) for 5 min. The wound was flushed with saline solution once the thread had been removed. […] We measured the size and rate of thrombus formation, and we graded our results as follows: no thrombus or small thrombus (75–50 μm), medium thrombus (150–100 μm), massive thrombus (300–200 μm), and more than three thrombi. It was also noted how long it took for an extensive thrombus to obstruct the carotid artery following endothelial damage caused by FeCl3.

[6] = test system: collagen and epinephrine-induced pulmonary thrombosis; assay: Acute pulmonary thrombosis induced by collagen and epinephrine; type: in vivo, mouse; settings: for Mortality %: then collagen + epinephrine, mice; for Scored thrombus formation (Thrombi), lung: graded as thrombi per 25 mm^2 lung field
Method: Mice were separated into several groups after being fasted overnight (10 animals each). CSL was dissolved in DMSO and given intravenously to each mouse. After 1 h, the animals received an injection of collagen and epinephrine mixture (500 μg/kg each) to induce acute thrombosis. Each mouse was closely observed for 15 min to see if it had recovered from the acute thrombosis challenge, had been paralyzed, or had passed away. H&E-stained lung tissue slices from five mice were randomly selected for the histologic investigation to determine the extent of pulmonary thrombus development. The number of arteries greater than 20 μm in diameter with any detectable thrombus was counted in each of the five view fields randomly selected from the left lobe in each section (one section per mouse). Twenty-five fields for each group were compared as a result. A total of 60–80 vessels in each segment were imaged using the system (Leica, Germany). The results were graded as the number of thrombi per 25 mm^2 lung field as previously described.

platelets = settings: cited from earlier work

SMILES: O=C(NC[C@H]1CN(c2ccc(N3CCOCC3=O)cc2)C(=O)O1)c1ccc(Cl)s1 [Rivaroxaban, rivaroxaban, reference compound]
- concentration that doubled the clotting time (in vitro aPTT) [1]: 8.38 µM
- dose that doubled the clotting time (ex vivo aPTT) [2]: 0.29 mg/kg
- PT [3]: did not change
- platelet aggregation induced by ADP ([4]; ADP 10 μM): did not affect
- platelet aggregation induced by U46619 ([4]; U46619 6 μM): did not affect
- platelet aggregation induced by collagen ([4]; collagen 1 μg/mL): did not affect
- platelet aggregation induced by thrombin ([4]; thrombin 3 U/mL): did not affect
- Scored thrombus formation ([5]; 0.13 mg/kg intravenous): 3.5 ± 0.1
- Time to Large Thrombus Formation ([5]; 0.13 mg/kg intravenous): 15.3 ± 1.1 min
- Scored thrombus formation ([5]; 0.26 mg/kg intravenous): 3.1 ± 0.3
- Time to Large Thrombus Formation ([5]; 0.26 mg/kg intravenous): 21.8 ± 1.9 min
- Scored thrombus formation ([5]; 0.51 mg/kg intravenous): 2.3 ± 0.1
- Time to Large Thrombus Formation ([5]; 0.51 mg/kg intravenous): 44.3 ± 3.1 min
- Mortality % ([6]; 0.13 mg/kg intravenous): 85 ^# %
- Scored thrombus formation (Thrombi), lung ([6]; 0.13 mg/kg intravenous): 3.1 ± 0.1
- Mortality % ([6]; 0.26 mg/kg intravenous): 75 ^# %
- Scored thrombus formation (Thrombi), lung ([6]; 0.26 mg/kg intravenous): 2.6 ± 0.1
- Mortality % ([6]; 0.51 mg/kg intravenous): 55 ^# %
- Scored thrombus formation (Thrombi), lung ([6]; 0.51 mg/kg intravenous): 1.9 ± 0.2
- platelet aggregation (platelets; blood taken from patients on rivaroxaban treatment): decreased platelet aggregation
- platelet aggregation brought on by collagen, ADP, thromboxane A2, or thrombin (platelets; previous studies): not to affect
